According to patent US11634447B2 (priority 2012, dated 2023):
“And” between values parts separate entries of the source, which are not always exact repeats. Equal values may be shown once. Read-outs that look alike come from different tables or passages of the source.

Key:
FimH-CRD = target: T1, FimH-CRD (Escherichia coli, UniProt P08191); test: Competitive binding assay by fluorescence polarization, assay 1 (compounds prepared by manual dilution); set-up: species or system E. coli
T1 construct: The first 177 amino acids of the FimH protein are expressed as a fusion protein; thrombin tag (printed as 'fusion protein with thrombin') (cleaved yes); made in house; host or cells: bacteria (pET21b plasmid)
Experimental: The first 177 amino acids of the FimH protein are expressed as a fusion protein with thrombin in a pET21b plasmid in bacteria. This FimH protein sequence contains the carbohydrate recognition domain (CRD) and shall be termed FimH-CRD. Following bacterial expression of the protein, the FimH-CRD protein is purified to homogeneity and the thrombin tag removed by protease cleavage. A competitive binding assay by fluorescence polarization is performed using 5 nM of the Alexa 647 mannoside probe and 60 nM of the FimH-CRD. The samples are assayed in a low volume 384 well microtiter plate in a final volume of 20 μl. The final assay buffer conditions are the following, 50 mM Tris-Cl, ph 7.0, 100 mM NaCl, 1 mM EDTA, 5 mM β-mercaptoethanol, 0.05% BSA and 2.5% DMSO. Two assays are performed for FimH, termed assay 1 or assay 2. The assay conditions are the same for both assays except the following: assay 1 has compounds prepared by manual dilution in a serial dilution factor with 12-point dose response while assay 2 has compounds prepared by a robotics system also through a serial dilution factor (12 point dose response) and initially prepared in duplicate in 384 well-Corning polypropylene round bottom plates. The assay 2 plates have compound which is then frozen and must be thawed prior to use. Initially the Alexa 647 probe and the FimH-CRD are added to the assay buffer and then 0.5 μl of test compound (assay 1 or 2) between 0.4 nM to 75 μM final concentration are added (12 point titration with 3-fold serial dilution). Control wells for the Alexa 647 probe are prepared with the same conditions except for the addition of the FimH-CRD protein. Plates are then incubated for 5 hrs at room temperature in the dark and under humid conditions to prevent drying. Plates are read using the SpectraMax Paradigm multi-mode plate reader and the appropriate fluorescent polarization detection cartridge (Alexa-647).
Alexa 647 mannoside probe is prepared using the similar procedure reported for FAM mannoside (Han, Z. et. al., 2010, J. Med. Chem., 53, 4779) and is described in the scheme below.
To a blue colored stirred solution of (2S,3S,4S,5S,6R)-2-(4-aminobutoxy)-6-(hydroxymethyl)tetrahydropyran-3,4,5-triol (2.21 mg, 0.009 mmol) and the (2E)-2-[(2E,4E)-5-[3,3-dimethyl-5-sulfonato-1-(3-sulfonatopropyl)indol-1-ium-2-yl]penta-2,4-dienylidene]-3-[6-(2,5-dioxopyrrolidin-1-yl)oxy-6-oxo-hexyl]-3-methyl-1-(3-sulfonatopropyl)indoline-5-sulfonate (Potassium Ion (3)) (4.9 mg, 0.0044 mmol) in DMF (44 μL) is added Et3N (5.4 mg, 7.0 μL, 0.053 mmol) at RT. The solution is stirred at room temperature over night, concentrated, dissolved in water and purified on 12 g C-18 silica gel cartridge on Isolera system using acetonitrile in water (0 to 40%, 10 CV) and followed by lyophilization to afford Alexa 647 mannoside probe (3.3 mg, 34%) as deep blue solid.
The Kd values of the compounds are determined from dose response curves using twelve concentrations per compound in duplicate. Curves are fitted to data points using Fluorescence Polarization competitive displacement analysis, and Kds are interpolated from the resulting curves using GraphPad Prism software, version […] (GraphPad software Inc., San Diego, Calif., USA).

[1] = tested on: bacterial strain LF82 binding to the glycoprotein BSA-(Mannose)3; test: Bacterial Binding Assay (BBA); type: cell-based, Escherichia coli; details: read-out: Bacterial Binding Assay IC50, LF82/Luciferase strain binding to BSA-(Man)3 coated plates, luminescence
In short: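 Inhibition of LF82/luciferase E. coli adhesion is read as luminescence after washing off unbound cells. Compound and bacteria (10^7 per well) are co-incubated 40-75 min at room temperature on wells coated with 0.5-2 μg/mL BSA-(Man)3, with BSA-only wells as background; IC50 values derived.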

[2] = Assay 1 Kd, 5 nM Alexa 647 mannoside probe, 60 nM FimH-CRD, replicate values in one cell
[3] = read-out: Assay 1 Kd, 5 nM Alexa 647 mannoside probe, 60 nM FimH-CRD, replicate values in one cell

T1 sequence (P08191 22-177): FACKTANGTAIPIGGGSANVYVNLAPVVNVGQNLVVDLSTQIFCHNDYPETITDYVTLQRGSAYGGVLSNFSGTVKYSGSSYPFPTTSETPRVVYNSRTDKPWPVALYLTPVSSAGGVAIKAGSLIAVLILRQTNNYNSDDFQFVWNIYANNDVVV

Compound | Kd (FimH-CRD; [2]) | Kd (FimH-CRD; [3]) [µM] | IC50 [1] [µM]
N#Cc1cc(/C=C/C[C@H]2O[C@H](CO)[C@@H](O)[C@H](O)[C@@H]2O)ccc1/C=C/C[C@H]1O[C@H](CO)[C@@H](O)[C@H](O)[C@@H]1O [Compound 33, (2,5-Bis[(E)-3-[(2R,3S,4R,5S,6R)-3,4,5-trihydroxy-6-(hydroxymethyl)tetrahydropyran-2-yl]prop-1-enyl]benzonitrile)] | < 0.005 µM | < 0.005 | 0.39
OC[C@H]1O[C@H](c2cccc([C@H]3O[C@H](CO)[C@@H](O)[C@H](O)[C@@H]3O)c2)[C@@H](O)[C@@H](O)[C@@H]1O [Compound 2] | 0.125 µM and 0.062 µM | – | 4.95
OC[C@H]1O[C@H](C/C=C/c2ccc(/C=C/C[C@H]3O[C@H](CO)[C@@H](O)[C@H](O)[C@@H]3O)c(F)c2)[C@@H](O)[C@@H](O)[C@@H]1O [Compound 28] | < 0.005 µM | < 0.005 | 0.77
OC[C@H]1O[C@H](C/C=C/c2ccc(/C=C/C[C@H]3O[C@H](CO)[C@@H](O)[C@H](O)[C@@H]3O)c(Cl)c2)[C@@H](O)[C@@H](O)[C@@H]1O [Compound 29, ((2R,3S,4R,5S,6R)-2-[(E)-3-[3-Chloro-4-[(E)-3-[(2R,3S,4R,5S,6R)-3,4,5-trihydroxy-6-(hydroxymethyl)tetrahydropyran-2-yl]prop-1-enyl]phenyl]allyl]-6-(hydroxymethyl)tetrahydropyran-3,4,5-triol)] | 0.006 µM and 0.008 µM | – | 1.3
COC(=O)c1cc(/C=C/C[C@H]2O[C@H](CO)[C@@H](O)[C@H](O)[C@@H]2O)ccc1/C=C/C[C@H]1O[C@H](CO)[C@@H](O)[C@H](O)[C@@H]1O [Compound 26, (Methyl 2,5-bis[(E)-3-[(2R,3S,4R,5S,6R)-3,4,5-trihydroxy-6-(hydroxymethyl)tetrahydropyran-2-yl]prop-1-enyl]benzoate)] | < 0.005 µM | < 0.005 | 0.85
COc1cc(/C=C/C[C@H]2O[C@H](CO)[C@@H](O)[C@H](O)[C@@H]2O)c(OC)cc1/C=C/C[C@H]1O[C@H](CO)[C@@H](O)[C@H](O)[C@@H]1O [Compound 30, ((2R,3S,4R,5S,6R)-2-[(E)-3-[2,5-Dimethoxy-4-[(E)-3-[(2R,3S,4R,5S,6R)-3,4,5-trihydroxy-6-(hydroxymethyl)tetrahydropyran-2-yl]prop-1-enyl]phenyl]allyl]-6-(hydroxymethyl)tetrahydropyran-3,4,5-triol)] | 0.007 µM and < 0.005 µM | – | 0.3
OC[C@H]1O[C@H](C/C=C/c2ccc(/C=C/C[C@H]3O[C@H](CO)[C@@H](O)[C@H](O)[C@@H]3O)cc2)[C@@H](O)[C@@H](O)[C@@H]1O [Compound 24, ((2R,3S,4R,5S,6R)-2-(Hydroxymethyl)-6-[(E)-3-[4-[(E)-3-[(2R,3S,4R,5S,6R)-3,4,5-trihydroxy-6-(hydroxymethyl)tetrahydropyran-2-yl]prop-1-enyl]phenyl]allyl]tetrahydropyran-3,4,5-triol)] | < 0.005 µM | < 0.005 | 0.65
O=[N+]([O-])c1cc(/C=C/C[C@H]2O[C@H](CO)[C@@H](O)[C@H](O)[C@@H]2O)ccc1/C=C/C[C@H]1O[C@H](CO)[C@@H](O)[C@H](O)[C@@H]1O [Compound 32, ((2R,3S,4R,5S,6R)-2-(Hydroxymethyl)-6-[(E)-3-[3-nitro-4-[(E)-3-[(2R,3S,4R,5S,6R)-3,4,5-trihydroxy-6-(hydroxymethyl)tetrahydropyran-2-yl]prop-1-enyl]phenyl]allyl]tetrahydropyran-3,4,5-triol)] | < 0.005 µM | < 0.005 | 0.34
OC[C@H]1O[C@H](c2ccc(-n3cc([C@H]4O[C@H](CO)[C@@H](O)[C@H](O)[C@@H]4O)nn3)cc2)[C@@H](O)[C@@H](O)[C@@H]1O [Compound 36, ((2R,3S,4R,5S,6R)-2-(Hydroxymethyl)-6-[4-[4-[(2R,3S,4R,5S,6R)-3,4,5-trihydroxy-6-(hydroxymethyl)tetrahydropyran-2-yl]triazol-1-yl]phenyl]tetrahydropyran-3,4,5-triol)] | 0.006 µM and 0.014 µM and < 0.005 µM | – | –
CC(C)Oc1ccc([C@H]2O[C@H](CO)[C@@H](O)[C@H](O)[C@@H]2O)cc1[C@H]1O[C@H](CO)[C@@H](O)[C@H](O)[C@@H]1O [Compound 4] | 0.068 µM and 0.096 µM | – | –
O=C(Nc1ccc(NC(=O)c2cccc([C@H]3O[C@H](CO)[C@@H](O)[C@H](O)[C@@H]3O)c2)cc1)c1cccc([C@H]2O[C@H](CO)[C@@H](O)[C@H](O)[C@@H]2O)c1 [Compound 7, (3-[(2R,3S,4R,5S,6R)-3,4,5-Trihydroxy-6-(hydroxymethyl)tetrahydropyran-2-yl]-N-[4-[[3-[(2R,3S,4R,5S,6R)-3,4,5-trihydroxy-6-(hydroxymethyl)tetrahydropyran-2-yl]benzoyl]amino]phenyl]benzamide)] | 0.017 µM and 0.011 µM | – | –
Cc1cc(/C=C/C[C@H]2O[C@H](CO)[C@@H](O)[C@H](O)[C@@H]2O)ccc1/C=C/C[C@H]1O[C@H](CO)[C@@H](O)[C@H](O)[C@@H]1O [Compound 27, ((2R,3S,4R,5S,6R)-2-(Hydroxymethyl)-6-[(E)-3-[3-methyl-4-[(E)-3-[(2R,3S,4R,5S,6R)-3,4,5-trihydroxy-6-(hydroxymethyl)tetrahydropyran-2-yl]prop-1-enyl]pheny]allyl]tetrahydropyran-3,4,5-triol)] | < 0.005 µM | < 0.005 | 0.8
OC[C@H]1O[C@H](n2cc(-c3cccc(-c4cn([C@H]5O[C@H](CO)[C@@H](O)[C@H](O)[C@@H]5O)nn4)c3)nn2)[C@@H](O)[C@@H](O)[C@@H]1O [Compound 19, ((2R,3S,4S,5S,6S)-2-(Hydroxymethyl)-6-[4-[3-[1-[(2S,3S,4S,5S,6R)-3,4,5-trihydroxy-6-(hydroxymethyl)tetrahydropyran-2-yl]triazol-4-yl]phenyl]triazol-1-yl]tetrahydropyran-3,4,5-triol)] | 0.006 µM and < 0.005 µM | – | 0.43
Cc1cc(/C=C/C[C@H]2O[C@H](CO)[C@@H](O)[C@H](O)[C@@H]2O)cc(C)c1/C=C/C[C@H]1O[C@H](CO)[C@@H](O)[C@H](O)[C@@H]1O [Compound 31, ((2R,3S,4R,5S,6R)-2-[(E)-3-[3,5-Dimethyl-4-[(E)-3-((2R,3S,4R,5S,6R)-3,4,5-trihydroxy-6-(hydroxymethyl)tetrahydropyran-2-yl]prop-1-enyl]phenyl]allyl]-6-(hydroxymethyl)tetrahydropyran-3,4,5-triol)] | < 0.005 µM | < 0.005 | –
O=C(NCCOCCOCCNC(=O)c1cccc([C@H]2O[C@H](CO)[C@@H](O)[C@H](O)[C@@H]2O)c1)c1cccc([C@H]2O[C@H](CO)[C@@H](O)[C@H](O)[C@@H]2O)c1 [Compound 15, (R,R,S,R,S)-N,N′-((Ethane-1,2-diylbis(oxy))bis(ethane-2,1-diyl))bis(3-((2R,3S,4R,5S,6R)-3,4,5-trihydroxy-6-(hydroxymethyl)tetrahydro-2H-pyran-2-yl)benzamide)] | 0.011 µM and 0.015 µM | – | –
O=C(NCCNC(=O)c1cccc([C@H]2O[C@H](CO)[C@@H](O)[C@H](O)[C@@H]2O)c1)c1cccc([C@H]2O[C@H](CO)[C@@H](O)[C@H](O)[C@@H]2O)c1 [Compound 8, (R,R,S,R,S)-N,N′-(Ethane-1,2-diyl)bis(3-((2R,3S,4R,5S,6R)-3,4,5-trihydroxy-6-(hydroxymethyl)tetrahydro-2H-pyran-2-yl)benzamide)] | 0.016 µM and 0.019 µM | – | –
